Legend:
[1] = target: acyl-CoA: cholesterol acyltransferase (ACAT); test: In vitro ACAT inhibition: radiolabeled cholesterol oleate formed from radiolabeled oleic acid in rabbit intestinal microsomes; assay type: biochemical; conditions: tissue preparation containing rabbit intestinal microsomes; concentration required to inhibit the activity of the enzyme by 50%
Protocol: The ability of representative compounds of the present invention to inhibit ACAT was measured using an in vitro test more fully described in F. J. Field and R. G. Salone, Biochemica et Biophysica 712:557-570 (1982). The test assesses the ability of a test compound to inhibit the acylation of cholesterol by oleic acid by measuring the amount of radiolabeled cholesterol oleate formed from radiolabeled oleic acid in a tissue preparation containing rabbit intestinal microsomes.
The data appear in Table 1 where they are expressed as ICso values; i.e., the concentration of test compound required to inhibit the activity of the enzyme by 50%.

[2] = test system: male Sprague-Dawley rats; test: In vivo screen APCC: blood cholesterol in rats fed PCC diet overnight; conditions: blood cholesterol versus vehicle (CMC/Tween); dosed at 4 PM, PCC diet with 1 % or 0.5% cholic acid overnight, sacrificed at 8 AM; dose not given
Source text: In one in vivo screen designated APCC, male Sprague-Dawley rats (200 to 225 g) were randomly divided into treatment groups and dosed at 4 PM with either vehicle (CMC/Tween) or suspensions of compounds in vehicle. The normal chow diet was then replaced with the PCC diet with either 1 % or 0.5% cholic acid, as indicated. The rats consumed this diet ad libitum during the night and were sacrificed at 8 AM to obtain blood samples for cholesterol analysis using standard procedures. Statistical differences between mean cholesterol values for the same vehicle were determined using analysis of variance followed by Fisher's least significant test.

Row | IC50 [1] [nM] | SMILES | % Change (mg/dl) [2]
1 | 13 | CC(C)c1cccc(C(C)C)c1NC(=O)CC(=O)N(Cc1ccccc1)Cc1ccccc1 [N'-[2,6-bis(1-methylethyl)-phenyl]-N,N-bis(phenylmethyl)-propanediamide] | -42%
2 | 20 | CC(C)c1cccc(C(C)C)c1NC(=O)CC(=O)N(C(C)C)C(c1ccccc1)c1ccccc1 [N'-[2,6-bis(1-methylethyl)-phenyl]-N-(diphenylmethyl)-N-(1-methylethyl)propanediamide] | -41%
3 | 770 | CC(C)c1cccc(C(C)C)c1NC(=O)CC(=O)NCC(c1ccccc1)c1ccccc1 [N-[2,6-Bis(1-methylethyl)phenyl]-N'-(2,2-diphenylethyl)propanediamide] | 
4 | 490 | CC(C)c1cccc(C(C)C)c1NC(=O)CC(=O)NC(c1ccccc1)c1ccccc1 [N-[2,6-bis(1-methylethyl)-phenyl-N'-(diphenylmethyl)-propanediamide] | -20%
5 | 990 | CC(C)c1cccc(C(C)C)c1NC(=O)CC(=O)NCC1(c2ccccc2)CCCC1 [N-[2,6-bis(1-methylethyl)-phenyl]-N'-(1-phenylcyclo-pentyl)methylpropanediamide] | +7%
